Measured values: patent US20220081412A1, “QUINOLINYL-PYRAZINE-CARBOXAMIDE COMPOUNDS AND USES THEREOF” (The Regents of the University of Michigan, priority 2018, published 2022)

Test system: MIA PaCa-2 cells
Assay: Bru-seq analysis for nascent RNA synthesis (log2FC of genes, GSEA gene sets)
Assay type: cell-based, human
Settings: downregulated gene sets, 4 h, MIA PaCa-2 cells

## CCN(CC)CCCC(C)Nc1cnc(C(=O)Nc2cc(C)cc3cccnc23)cn1 (stereo not drawn) [J4, 5-((5-(diethylamino)pentan-2-yl)amino)-N-(6-methylquinolin-8-yl)pyrazine-2-carboxamide]
C2
  NES TURASHVILI_BREAST_LOBULAR_CARCINOMA_VS_DUCTAL_NORMAL_DN: −1.603
  NES ZHANG_TLX_TARGETS_36HR_DN: −2.309
  NES ZHANG_TLX_TARGETS_DN: −1.942
  NES ZHENG_FOXP3_TARGETS_IN_T_LYMPHOCYTE_DN: −1.893
GO
  ES GO_BASAL_PART_OF_CELL: −0.526
  ES GO_CELL_SURFACE_RECEPTOR_SIGNALING_PATHWAY_INVOLVED_IN_CELL_CELL_SIGNALING: −0.570
  ES GO_CILIUM_ORGANIZATION: −0.331
  ES GO_CYTOKINE_RECEPTOR_ACTIVITY: −0.488
  ES GO_DENDRITIC_SHAFT: −0.568
  ES GO_DNA_DEPENDENT_ATPASE_ACTIVITY: −0.369
  ES GO_DNA_DEPENDENT_DNA_REPLICATION_MAINTENANCE_OF_FIDELITY: −0.569
  ES GO_DNA_DOUBLE_STRAND_BREAK_PROCESSING: −0.551
  ES GO_DNA_HELICASE_ACTIVITY: −0.389
  ES GO_DNA_REPAIR_COMPLEX: −0.429
  ES GO_GLUTAMINE_METABOLIC_PROCESS: −0.569
  ES GO_G_PROTEIN_COUPLED_RECEPTOR_ACTIVITY: −0.476
  ES GO_HOMOPHILIC_CELL_ADHESION_VIA_PLASMA_MEMBRANE_ADHESION_MOLECULES: −0.581
  ES GO_MITOTIC_RECOMBINATION: −0.420
  ES GO_NEGATIVE_REGULATION_OF_EPITHELIAL_CELL_DIFFERENTIATION: −0.597
  ES GO_PHOSPHOLIPID_TRANSPORTER_ACTIVITY: −0.549
  ES GO_POTASSIUM_CHANNEL_COMPLEX: −0.536
  ES GO_RECIPROCAL_DNA_RECOMBINATION: −0.450
  ES GO_RECOMBINATIONAL_REPAIR: −0.382
  ES GO_REGULATION_OF_ACUTE_INFLAMMATORY_RESPONSE: −0.521
  ES GO_REGULATION_OF_MEMBRANE_LIPID_DISTRIBUTION: −0.521
  ES GO_RESPONSE_TO_X_RAY: −0.501
  ES GO_SOMATIC_RECOMBINATION_OF_IMMUNOGLOBULIN_GENE_SEGMENTS: −0.498
  ES GO_SOMITE_DEVELOPMENT: −0.451
  ES GO_STRAND_DISPLACEMENT: −0.471
  NES GO_BASAL_PART_OF_CELL: −1.629
  NES GO_CELL_SURFACE_RECEPTOR_SIGNALING_PATHWAY_INVOLVED_IN_CELL_CELL_SIGNALING: −1.653
  NES GO_CILIUM_ORGANIZATION: −1.502
  NES GO_CYTOKINE_RECEPTOR_ACTIVITY: −1.467
  NES GO_DENDRITIC_SHAFT: −1.746
  NES GO_DNA_DEPENDENT_ATPASE_ACTIVITY: −1.545
  NES GO_DNA_DEPENDENT_DNA_REPLICATION_MAINTENANCE_OF_FIDELITY: −1.697
  NES GO_DNA_DOUBLE_STRAND_BREAK_PROCESSING: −1.613
  NES GO_DNA_HELICASE_ACTIVITY: −1.504
  NES GO_DNA_REPAIR_COMPLEX: −1.586
  NES GO_GLUTAMINE_METABOLIC_PROCESS: −1.616
  NES GO_G_PROTEIN_COUPLED_RECEPTOR_ACTIVITY: −1.804
  NES GO_HOMOPHILIC_CELL_ADHESION_VIA_PLASMA_MEMBRANE_ADHESION_MOLECULES: −1.691
  NES GO_MITOTIC_RECOMBINATION: −1.547
  NES GO_NEGATIVE_REGULATION_OF_EPITHELIAL_CELL_DIFFERENTIATION: −1.799
  NES GO_PHOSPHOLIPID_TRANSPORTER_ACTIVITY: −1.692
  NES GO_POTASSIUM_CHANNEL_COMPLEX: −1.693
  NES GO_RECIPROCAL_DNA_RECOMBINATION: −1.485
  NES GO_RECOMBINATIONAL_REPAIR: −1.548
  NES GO_REGULATION_OF_ACUTE_INFLAMMATORY_RESPONSE: −1.555
  NES GO_REGULATION_OF_MEMBRANE_LIPID_DISTRIBUTION: −1.498
  NES GO_RESPONSE_TO_X_RAY: −1.636
  NES GO_SOMATIC_RECOMBINATION_OF_IMMUNOGLOBULIN_GENE_SEGMENTS: −1.483
  NES GO_SOMITE_DEVELOPMENT: −1.594
  NES GO_STRAND_DISPLACEMENT: −1.493
HALLMARK
  ES HALLMARK_KRAS_SIGNALING_DN: −0.282
  ES HALLMARK_KRAS_SIGNALING_UP: −0.230
  ES HALLMARK_MYC_TARGETS_V1: −0.172
  ES HALLMARK_MYC_TARGETS_V2: −0.178
  ES HALLMARK_TGF_BETA_SIGNALING: −0.324
  NES HALLMARK_KRAS_SIGNALING_DN: −0.992
  NES HALLMARK_KRAS_SIGNALING_UP: −0.965
  NES HALLMARK_MYC_TARGETS_V1: −0.831
  NES HALLMARK_MYC_TARGETS_V2: −0.691
  NES HALLMARK_TGF_BETA_SIGNALING: −1.256
KEGG
  ES KEGG_ABC_TRANSPORTERS: −0.412
  ES KEGG_ADHERENS_JUNCTION: −0.158
  ES KEGG_ALANINE_ASPARTATE_AND_GLUTAMATE_METABOLISM: −0.250
  ES KEGG_AMYOTROPHIC_LATERAL_SCLEROSIS_ALS: −0.247
  ES KEGG_AXON_GUIDANCE: −0.201
  ES KEGG_CALCIUM_SIGNALING_PATHWAY: −0.324
  ES KEGG_CELL_ADHESION_MOLECULES_CAMS: −0.231
  ES KEGG_CYTOSOLIC_DNA_SENSING_PATHWAY: −0.247
  ES KEGG_DNA_REPLICATION: −0.254
  ES KEGG_ECM_RECEPTOR_INTERACTION: −0.201
  ES KEGG_HEDGEHOG_SIGNALING_PATHWAY: −0.329
  ES KEGG_HOMOLOGOUS_RECOMBINATION: −0.260
  ES KEGG_MISMATCH_REPAIR: −0.375
  ES KEGG_NEUROACTIVE_LIGAND_RECEPTOR_INTERACTION: −0.624
  ES KEGG_NUCLEOTIDE_EXCISION_REPAIR: −0.241
  ES KEGG_PATHOGENIC_ESCHERICHIA_COLI_INFECTION: −0.220
  ES KEGG_PURINE_METABOLISM: −0.285
  ES KEGG_PYRIMIDINE_METABOLISM: −0.256
  ES KEGG_RIG_I_LIKE_RECEPTOR_SIGNALING_PATHWAY: −0.197
  ES KEGG_RNA_POLYMERASE: −0.202
  ES KEGG_STARCH_AND_SUCROSE_METABOLISM: −0.342
  ES KEGG_TGF_BETA_SIGNALING_PATHWAY: −0.336
  ES KEGG_WNT_SIGNALING_PATHWAY: −0.231
  NES KEGG_ABC_TRANSPORTERS: −1.220
  NES KEGG_ADHERENS_JUNCTION: −0.628
  NES KEGG_ALANINE_ASPARTATE_AND_GLUTAMATE_METABOLISM: −0.732
  NES KEGG_AMYOTROPHIC_LATERAL_SCLEROSIS_ALS: −0.838
  NES KEGG_AXON_GUIDANCE: −0.829
  NES KEGG_CALCIUM_SIGNALING_PATHWAY: −1.264
  NES KEGG_CELL_ADHESION_MOLECULES_CAMS: −0.738
  NES KEGG_CYTOSOLIC_DNA_SENSING_PATHWAY: −0.784
  NES KEGG_DNA_REPLICATION: −0.912
  NES KEGG_ECM_RECEPTOR_INTERACTION: −0.655
  NES KEGG_HEDGEHOG_SIGNALING_PATHWAY: −0.982
  NES KEGG_HOMOLOGOUS_RECOMBINATION: −0.820
  NES KEGG_MISMATCH_REPAIR: −1.179
  NES KEGG_NEUROACTIVE_LIGAND_RECEPTOR_INTERACTION: −1.955
  NES KEGG_NUCLEOTIDE_EXCISION_REPAIR: −0.899
  NES KEGG_PATHOGENIC_ESCHERICHIA_COLI_INFECTION: −0.782
  NES KEGG_PURINE_METABOLISM: −1.277
  NES KEGG_PYRIMIDINE_METABOLISM: −1.109
  NES KEGG_RIG_I_LIKE_RECEPTOR_SIGNALING_PATHWAY: −0.724
  NES KEGG_RNA_POLYMERASE: −0.669
  NES KEGG_STARCH_AND_SUCROSE_METABOLISM: −1.006
  NES KEGG_TGF_BETA_SIGNALING_PATHWAY: −1.284
  NES KEGG_WNT_SIGNALING_PATHWAY: −0.992
TFBT
  ES BRN2_01: −0.247
  ES CDPCR1_01: −0.259
  ES CDP_01: −0.301
  ES EN1_01: −0.276
  ES FOXJ2_02: −0.261
  ES GGCKCATGS_UNKNOWN: −0.441
  ES HMEF2_Q6: −0.266
  ES HNF1_Q6: −0.266
  ES HOX13_01: −0.366
  ES IK1_01: −0.227
  ES IRF2_01: −0.324
  ES MEF2_02: −0.225
  ES MEF2_Q6_01: −0.220
  ES MEIS1BHOXA9_01: −0.320
  ES NKX3A_01: −0.267
  ES PAX8_01: −0.439
